# Assay results as given in patent publication US20090176755A1, “PHARMACEUTICAL COMPOSITIONS COMPRISING AN ANTIBIOTIC” (priority 2005, published 2009).
# Experiment: Exposure of form B crystals to high relative humidity or water (polymorphic transformation)
# Type: physicochemical
# Source text: Usually minutes of exposure to high humidity and seconds of exposure to water, such as within an suspension, are sufficient for this transformation. Such conditions are for example found during pharmaceutical production in countries with a humid climate.
smiles,measurement,setting,value
"C=CC1=C(C(=O)O)N2C(=O)C(NC(=O)C(=NO)c3csc(N)n3)[C@H]2SC1 (stereo partly drawn) [crystalline form B of cefdinir, 7-[2-(2-aminothiazol-4-yl)-2-hydroxyiminoacetamido]-3-vinyl-3-cephem-4-carboxylic acid]",exposure time sufficient for transformation into a different polymorphic form,exposure to high humidity,minutes
same,exposure time sufficient for transformation into a different polymorphic form,"exposure to water, such as within a suspension",seconds
same,relative humidity at which form B transforms into a different polymorphic form with reduced stability,form B crystals exposed to humid conditions,higher than 65%
